Measurements published in patent US20080138437A1, “Antitumor Agent” (priority 2004, published 2008).
Where a name gives a salt, the structure may show the parent alone. Read-outs that look alike come from different tables or passages of the source.

Experiments:
in vivo = settings: male, C57BL/6, mouse
[1] = system: 15 types of human cancer cells; experiment: Cell growth inhibition test, MTT, average GI 50; assay type: cell-based; settings: average of 15 human cancer cell types, 48 hours exposure
Procedure: Appropriate amounts of each of the human cancer cells suspended in 5% fetal bovine serum-supplemented medium were plated into a 96-well plate, and allowed to adhere to the wells in a 37° C. CO2 incubator overnight.
These cancer cells were exposed to each anticancer agent for 48 hours. Cell growth was assayed by MTT. Absorbance of the control well (C) and the test well (T) was measured at 550 nm.
The absorbance of the test well immediately after adding the drug (TO) was also measured. Using these measured values, GI 50 of each drug was calculated, and the drug concentration at that time was obtained. For comparison, a similar test was performed for each of the anticancer agents (Comparative Tests 4-1 to 4-7).

[2] = system: OVCAR-3 ovarian cancer cells; experiment: Antitumor test, transplanted tumor in nude mice; assay type: in vivo, human; settings: control, drug without hydroxyapatite adsorption
Description: (§1) (Experimental Test 5-1 to 5-5).
(§2) Female nude mice (7 weeks old, 16 to 22 g) with a BALB/c genetic background were used for the tests. Human cancer cells used for the tests were GCIY stomach cancer cells, HCT-15 colon cancer cells, A549 lung cancer cells, and OVCAR-3 ovarian cancer cells. Human cancer cells were subcutaneously transplanted into nude mice, tumor lumps were formed, and these carcinomas were used for the tests.
(§3) Aseptically collected tumors were sliced into tumors of 3×3×3 mm, and then subcutaneously transplanted into a new nude mouse. When the tumors reached a volume of 100 to 300 mm^3, the animals were arbitrarily divided into groups of six (Day 0). […] Intravascular administration was the administration route for all.
(§4) After administration, between Days 24 to 31, the length (L) and width (W) of the tumor lump of the animal were measured twice a week, and the tumor volume (TV) was calculated according to the following formula: TV=(L×W^2)/2. Antitumor effect was determined at Day 14. The relative tumor volume (RTV) was obtained by the following formula: RTV=TV14/TV0, using values of the tumor volume at Day 0 and Day 14 (referred to as TV0 and TV14). Antitumor effect was evaluated as the tumor regression rate at Day 14 (T/C%). Herein, T/C %=100×(average RTV of the treated group)/(RTV of the control group).
(§5) As a control, each drug was tested without hydroxyapatite adsorption (Comparative Tests 5-10 to 5-14).

[3] = system: HCT-15 colon cancer cells; experiment: Antitumor test, transplanted tumor in nude mice; assay type: in vivo, human; settings: control, drug without hydroxyapatite adsorption
Description: as §1, §2, §3, §4, §5

[4] = system: GCIY stomach cancer cells; experiment: Antitumor test, transplanted tumor in nude mice; assay type: in vivo, human; settings: control, drug without hydroxyapatite adsorption
Description: as §1, §2, §3, §4, §5

A549 lung cancer cells = experiment: Antitumor test, transplanted tumor in nude mice; assay type: in vivo, human; settings: control, drug without hydroxyapatite adsorption
Description: as §1, §2, §3, §4, §5

C57BL/6 male mouse = settings: for deaths versus administered animals: one-time
[5] = 10 mg/kg intravascular, 14 days observation
[6] = intravascular, one-time administration, 14 days observation
[7] = 400 mg/kg oral, antitumor agent alone, 14 days observation
[8] = 600 mg/kg oral, antitumor agent alone, 14 days observation
[9] = 800 mg/kg oral, antitumor agent alone, 14 days observation
[10] = 1000 mg/kg oral, antitumor agent alone, 14 days observation
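Wherever LD50 is given: mice given a single dose and followed for 14 days, with deaths tallied, LD50 derived from the doses given and the resulting death counts.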
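Wherever deaths versus administered animals is given: mice given a single dose and followed for 14 days, with deaths tallied, LD50 derived from the doses given and the resulting death counts.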

## COC(COC(N)=O)C1=C(N2CC2)C(=O)C(C)=C(N2CC2)C1=O (centres unmarked) [Carboquone]
In vivo
  LD50: 5.8 mg/kg

## CCC1=C[C@@H]2CN(C1)Cc1c([nH]c3ccccc13)[C@@](C(=O)OC)(c1cc3c(cc1OC)N(C)[C@H]1[C@@](O)(C(=O)OC)[C@H](OC(C)=O)[C@]4(CC)C=CCN5CC[C@]31[C@@H]54)C2 [Vinorelbine]
In vivo; ip
  LD50: 29 mg/kg

## Sc1ncnc2nc[nH]c12 [Mercaptopurine]
In vivo; po
  LD50: 1090 mg/kg

## CC(C)C[C@H](NC(=O)[C@@H](COC(C)(C)C)NC(=O)[C@H](Cc1ccc(O)cc1)NC(=O)[C@H](CO)NC(=O)[C@H](Cc1c[nH]c2ccccc12)NC(=O)[C@H](Cc1cnc[nH]1)NC(=O)[C@@H]1CCC(=O)N1)C(=O)N[C@@H](CCCNC(=N)N)C(=O)N1CCC[C@H]1C(=O)NNC(N)=O [Goserelin acetate]
In vivo; sc
  LD50: 36 mg/kg

## CN(C)CCOc1ccc(/C(=C(/CCCl)c2ccccc2)c2ccccc2)cc1 [Toremifene citrate]
In vivo; po
  LD50: 360 mg/kg

## C[C@H]1O[C@@H](n2cc(F)c(=O)[nH]c2=O)[C@H](O)[C@@H]1O [Doxifluridine]
In vivo; po
  LD50: 1200 mg/kg

## CO[C@@]12[C@H](COC(N)=O)C3=C(C(=O)C(C)=C(N)C3=O)N1C[C@@H]1N[C@@H]12 [Mitomycin C]
[1]
  GI50: 1.43 µM

## CC[C@]1(O)C[C@@H]2CN(CCc3c([nH]c4ccccc34)[C@@](C(=O)OC)(c3cc4c(cc3OC)N(C)[C@H]3[C@@](O)(C(=O)OC)[C@H](OC(C)=O)[C@]5(CC)C=CCN6CC[C@]43[C@@H]65)C2)C1 [Vinblastine sulfate]
In vivo
  LD50: 5.6 mg/kg
In vivo; po
  LD50: 427 mg/kg

## CCC1=C[C@@H]2CN(C1)Cc1c([nH]c3ccccc13)[C@@](C(=O)OC)(c1cc3c(cc1OC)N(C)[C@H]1[C@@](O)(C(=O)OC)[C@H](OC(C)=O)[C@]4(CC)C=CCN5CC[C@]31[C@@H]54)C2 [Vinorelbine tartrate]
In vivo
  LD50: 2.3 mg/kg

## CC(C)C(=O)Nc1ccc([N+](=O)[O-])c(C(F)(F)F)c1 [Flutamide]
In vivo; po
  LD50: 772 mg/kg

## COc1cc([C@@H]2c3cc4c(cc3[C@@H](O[C@@H]3O[C@@H]5CO[C@@H](C)O[C@H]5[C@H](O)[C@H]3O)[C@H]3COC(=O)[C@H]23)OCO4)cc(OC)c1O [Etoposide]
[2]
  Regression rate of transplanted cancer (T/C %) at Day 14: 76%
[3]
  Regression rate of transplanted cancer (T/C %) at Day 14: 67%
[4]
  Regression rate of transplanted cancer (T/C %) at Day 14: 93%
A549 lung cancer cells
  Regression rate of transplanted cancer (T/C %) at Day 14: 72%
[1]
  GI50: 5.11 µM
C57BL/6 male mouse; [5]
  deaths versus administered animals: 0/6
C57BL/6 male mouse; 20 mg/kg intravascular, 14 days observation
  deaths versus administered animals: 1/6
C57BL/6 male mouse; 30 mg/kg intravascular, 14 days observation
  deaths versus administered animals: 2/6
C57BL/6 male mouse; 40 mg/kg intravascular, 14 days observation
  deaths versus administered animals: 5/7
C57BL/6 male mouse; 50 mg/kg intravascular, 14 days observation
  deaths versus administered animals: 5/6
C57BL/6 male mouse; 60 mg/kg intravascular, 14 days observation
  deaths versus administered animals: 6/6
In vivo
  LD50: 32.7 mg/kg
In vivo; po
  LD50: 220 mg/kg

## N.N.O=C([O-])C1(C(=O)[O-])CCC1.[Pt+2] [Carboplatin]
[1]
  GI50: 75.7 µM
C57BL/6 male mouse; 70 mg/kg intravascular, 14 days observation
  deaths versus administered animals: 0/6
C57BL/6 male mouse; 80 mg/kg intravascular, 14 days observation
  deaths versus administered animals: 1/7
C57BL/6 male mouse; 90 mg/kg intravascular, 14 days observation
  deaths versus administered animals: 3/6
C57BL/6 male mouse; 100 mg/kg intravascular, 14 days observation
  deaths versus administered animals: 5/8
C57BL/6 male mouse; 110 mg/kg intravascular, 14 days observation
  deaths versus administered animals: 7/8
C57BL/6 male mouse; 120 mg/kg intravascular, 14 days observation
  deaths versus administered animals: 7/7
C57BL/6 male mouse; [6]
  LD50: 93.0 mg/kg
C57BL/6 male mouse; oral, antitumor agent alone (comparison), one-time administration, 14 days observation
  LD50: 350 mg/kg

## N[C@@H](Cc1ccc(N(CCCl)CCCl)cc1)C(=O)O [Melphalan]
In vivo
  LD50: 21 mg/kg

## CN(C)/N=N/c1[nH]cnc1C(N)=O [Dacarbazine]
In vivo
  LD50: 452 mg/kg

## CC(=O)O[C@H]1C(=O)[C@@]2(C)[C@H]([C@H](OC(=O)c3ccccc3)[C@]3(O)C[C@H](OC(=O)[C@H](O)[C@@H](NC(=O)c4ccccc4)c4ccccc4)C(C)=C1C3(C)C)[C@]1(OC(C)=O)CO[C@@H]1C[C@@H]2O [Paclitaxel]
In vivo
  LD50: 12 mg/kg

## O=P1(NCCCl)OCCCN1CCCl (centres unmarked) [Ifosfamide]
In vivo
  LD50: 325 mg/kg
In vivo; po
  LD50: 996 mg/kg

## CCCCCCCCCCCCCCCCCCOP(=O)([O-])OC[C@H]1O[C@@H](n2ccc(N)nc2=O)[C@@H](O)[C@@H]1O.[Na+] [Cytarabine ocfosfate]
C57BL/6 male mouse; 250 mg/kg oral, antitumor agent alone, 14 days observation
  deaths versus administered animals: 0/5
C57BL/6 male mouse; 300 mg/kg oral, antitumor agent alone, 14 days observation
  deaths versus administered animals: 1/5
C57BL/6 male mouse; [7]
  deaths versus administered animals: 2/5
C57BL/6 male mouse; 500 mg/kg oral, antitumor agent alone, 14 days observation
  deaths versus administered animals: 2/5
C57BL/6 male mouse; [8]
  deaths versus administered animals: 3/5
C57BL/6 male mouse; 700 mg/kg oral, antitumor agent alone, 14 days observation
  deaths versus administered animals: 3/5
C57BL/6 male mouse; [9]
  deaths versus administered animals: 4/5
C57BL/6 male mouse; [10]
  deaths versus administered animals: 5/5
C57BL/6 male mouse; mouse, in vivo, po
  LD50: 524 mg/kg

## NC(=O)NO [Hydroxycarbamide]
In vivo; po
  LD50: 2350 mg/kg

## CC(C)COC(=O)OCN1C(=O)CN(CCN2CC(=O)N(COC(=O)OCC(C)C)C(=O)C2)CC1=O [Sobuzoxane]
C57BL/6 male mouse; 200 mg/kg oral, antitumor agent alone, 14 days observation
  deaths versus administered animals: 0/5
C57BL/6 male mouse; [7]
  deaths versus administered animals: 1/5
C57BL/6 male mouse; [8]
  deaths versus administered animals: 1/6
C57BL/6 male mouse; [9]
  deaths versus administered animals: 2/5
C57BL/6 male mouse; [10]
  deaths versus administered animals: 3/5
C57BL/6 male mouse; 1200 mg/kg oral, antitumor agent alone, 14 days observation
  deaths versus administered animals: 4/5
C57BL/6 male mouse; 1400 mg/kg oral, antitumor agent alone, 14 days observation
  deaths versus administered animals: 6/6

## C[C@]12CC[C@@H]3c4ccc(OC(=O)N(CCCl)CCCl)cc4CC[C@H]3[C@@H]1CC[C@@H]2OP(=O)(O)O [Estramustine sodium phosphate]
In vivo; po
  LD50: 380 mg/kg

## Bleomycin hydrochloride
C57BL/6 male mouse; 200 mg/kg intravascular, 14 days observation
  deaths versus administered animals: 0/5
C57BL/6 male mouse; 250 mg/kg intravascular, 14 days observation
  deaths versus administered animals: 1/6
C57BL/6 male mouse; 300 mg/kg intravascular, 14 days observation
  deaths versus administered animals: 3/7
C57BL/6 male mouse; 350 mg/kg intravascular, 14 days observation
  deaths versus administered animals: 4/6
C57BL/6 male mouse; 400 mg/kg intravascular, 14 days observation
  deaths versus administered animals: 4/5
C57BL/6 male mouse; 500 mg/kg intravascular, 14 days observation
  deaths versus administered animals: 5/6
C57BL/6 male mouse; 600 mg/kg intravascular, 14 days observation
  deaths versus administered animals: 6/6
C57BL/6 male mouse; [6]
  LD50: 322.7 mg/kg

## CN(Cc1cnc2nc(N)nc(N)c2n1)c1ccc(C(=O)N[C@@H](CCC(=O)O)C(=O)O)cc1 [Methotrexate]
In vivo; ip
  LD50: 74 mg/kg

## CS(=O)(=O)OCCCCOS(C)(=O)=O [Busulphan]
In vivo; po
  LD50 at 14 days: 40 mg/kg

## N.N.[Cl][Pt][Cl] [Cisplatin]
[2]
  Regression rate of transplanted cancer (T/C %) at Day 14: 67%
[3]
  Regression rate of transplanted cancer (T/C %) at Day 14: 53%
[4]
  Regression rate of transplanted cancer (T/C %) at Day 14: 67%
A549 lung cancer cells
  Regression rate of transplanted cancer (T/C %) at Day 14: 79%
[1]
  GI50: 7.21 µM
C57BL/6 male mouse; 5.0 mg/kg intravascular, 14 days observation
  deaths versus administered animals: 1/8
C57BL/6 male mouse; 7.5 mg/kg intravascular, 14 days observation
  deaths versus administered animals: 2/7
C57BL/6 male mouse; [5]
  deaths versus administered animals: 5/8
C57BL/6 male mouse; 12.5 mg/kg intravascular, 14 days observation
  deaths versus administered animals: 6/8
C57BL/6 male mouse; 15 mg/kg intravascular, 14 days observation
  deaths versus administered animals: 5/6
C57BL/6 male mouse; 17.5 mg/kg intravascular, 14 days observation
  deaths versus administered animals: 6/6

## O=P1(N(CCCl)CCCl)NCCCO1 (centres unmarked) [Cyclophosphamide]
[2]
  Regression rate of transplanted cancer (T/C %) at Day 14: 71%
[3]
  Regression rate of transplanted cancer (T/C %) at Day 14: 52%
[4]
  Regression rate of transplanted cancer (T/C %) at Day 14: 78%
A549 lung cancer cells
  Regression rate of transplanted cancer (T/C %) at Day 14: 86%
In vivo
  LD50: 140 mg/kg

## S=P(N1CC1)(N1CC1)N1CC1 [Thiotepa]
In vivo
  LD50: 16.1 mg/kg

## CC1=C(/C=C/C(C)=C/C=C/C(C)=C/C(=O)O)C(C)(C)CCC1 [Tretinoin]
In vivo; po
  LD50: 549 mg/kg

## O=c1[nH]c(=O)n(C2CCCO2)cc1F (centres unmarked) [Tegafur]
In vivo; ip
  LD50: 750 mg/kg

B1: Neocarzinostatin (protein, UniProt P0A3R9 35-147, looked up)
Neocarzinostatin: AAPTATVTPSSGLSDGTVVKVAGAGLQAGTAYDVGQCAWVDTGVLACNPADFSSVTADANGSASTSLTVRRSFEGFLFDGTRWGTVDCTTAACQVGLSDAAGNGPEGVAISFN
modifications: enediyne chromophore
C57BL/6 male mouse; intraperitoneal, one-time administration, 14 days observation
  LD50: 1050 mg/kg
